The values below are quoted from earlier work in EP4602929A1, “ORAL PRODUCT WITH POWDER COATING” (Nicoventures Trading Limited, priority 2024, dated 2025).

Consider `CC(/C=C/C=C(C)/C=C/C(=O)O)=C\C=C\C=C(C)\C=C\C=C(C)\C=C\C(=O)O` (stereo in doubt) [norbixin, (2E,4E,6E,8E,10E,12E,14E,16E,18E)-4,8,13,17-tetramethylicosa-2,4,6,8,10,12,14,16,18-nonaenedioic acid], for which the solubility in water result was “water soluble”.

Take `COC(=O)/C=C/C(C)=C\C=C\C(C)=C\C=C\C=C(C)\C=C\C=C(C)\C=C\C(=O)O` [bixin, (2E,4E,6E,8E,10E,12E,14E,16Z,18E)-20-methoxy-4,8,13,17-tetramethyl-20-oxoicosa-2,4,6,8,10,12,14,16,18-nonaenoic acid]: the solubility in water result is listed as “insoluble in water”.
